Test results published in patent publication US5077281A, “Novel use of taurolin” (priority 1985, dated 1991).
Converted amounts (≈) assume the structure as drawn. “Also recorded” adds a separate entry of the source.

Columns and labels:
coagulation factor X = assay: coagulation factor analysis in plasma; assay type: biochemical, human
[1] = system: pooled plasma of various experimental persons; assay: PTT test on pooled plasma mixed with taurolin; assay type: biochemical, human; conditions: for PTT: 30 minutes
Description: (§1) Therefore, in comparison with known anti-coagulants, the use of taurolin has the advantage that a sufficient blood coagulatability always still remains and, therefore, an overdosing is not possible.
(§2) Samples of, in each case, 5 ml. of a pooled plasma of various experimental persons were mixed with increasing amounts of taurolin, namely, with amounts of 0 (1), 10 (2), 20 (3), 30 (4), 40 (5) and 50 (6) mg. of taurolin/5 ml. plasma (the figures given in brackets give the sample numbers).
(§3) The Quick test and the PTT test was carried out for the samples 1 to 6 and the following results (30 minutes) obtained (Table 1): […]

coagulation factor XII = molecular target: T1, coagulation factor XII (Homo sapiens, UniProt P00748); assay: coagulation factor analysis in plasma; assay type: biochemical
T1 construct: clotting factor activity assay
T1 sequence (P00748 20-615): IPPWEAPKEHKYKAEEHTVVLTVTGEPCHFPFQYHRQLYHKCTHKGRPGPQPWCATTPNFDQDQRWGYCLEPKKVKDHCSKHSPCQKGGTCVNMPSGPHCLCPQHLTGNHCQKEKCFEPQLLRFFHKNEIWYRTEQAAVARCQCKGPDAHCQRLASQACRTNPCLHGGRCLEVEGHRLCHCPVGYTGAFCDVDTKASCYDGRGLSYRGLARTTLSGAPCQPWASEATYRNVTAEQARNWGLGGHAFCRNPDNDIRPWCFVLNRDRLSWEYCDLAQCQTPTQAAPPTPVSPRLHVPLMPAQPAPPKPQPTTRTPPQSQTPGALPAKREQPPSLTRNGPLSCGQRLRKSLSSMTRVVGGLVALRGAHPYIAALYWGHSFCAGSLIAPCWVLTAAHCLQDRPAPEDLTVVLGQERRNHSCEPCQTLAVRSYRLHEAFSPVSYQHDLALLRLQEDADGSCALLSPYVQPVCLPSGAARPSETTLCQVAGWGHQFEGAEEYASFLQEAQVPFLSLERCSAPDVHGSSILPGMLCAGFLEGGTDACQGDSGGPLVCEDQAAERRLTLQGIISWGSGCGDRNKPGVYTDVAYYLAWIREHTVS

solubility = assay type: physicochemical; conditions: 50 mg./5 ml. blood plasma corresponds to a 1% solution; read-out: solubility limit
antithrombin III = assay: function of antithrombin III; assay type: biochemical
[2] = cited from earlier work
coagulation factor XI = assay: coagulation factor analysis in plasma; assay type: biochemical, human
blood plasma [3] = assay: suppression of blood coagulation on addition to blood plasma; assay type: biochemical, human; conditions: 5 ml. pooled plasma, up to max. 50 mg.
Description: as §1, §2

fresh blood = assay: fibrin deposition on taurolin-treated cellulose acetate foils in contact with fresh blood; parameters: species or system human
[4] = system: pooled plasma of various experimental persons; assay: Quick test on pooled plasma mixed with taurolin; assay type: biochemical, human; conditions: for Quick test (%): 30 minutes
Description: as §1, §2, §3

coagulation factor VIII = assay: coagulation factor analysis in plasma; assay type: biochemical, human
coagulation factor IX = assay: coagulation factor analysis in plasma; assay type: biochemical, human
blood plasma [5] = conditions: "Taurolin", Bruckner and Pfirrmann 1985; cited from earlier work
[6] = system: blood coagula on the artificial surface; assay: deposition of blood coagula on taurolin-contacted artificial surface in vivo; conditions: after contact of synthetic resin or metal surface with taurolin, implantation in organism with blood flow
Text: Therefore, this coagulation action can serve for the use of the taurolin for the treatment of surfaces of medical apparatus which are temporarily introduced into the blood stream, such as e.g. vein catheters (which, untreated, tend to blockage due to blood coagula which again represents a breeding place for bacteria, whereby the danger of a sepsis is brought about). The treatment of the apparatus can be carried out e.g. with an aqueous taurolin solution, especially a 1% aqueous taurolin solution. By means of an intermittent rinsing of vascular catheters, it is, in this way e.g. possible to prevent the coagula formation on the catheter tips.

coagulation factor V = assay: coagulation factor analysis in plasma; assay type: biochemical, human
coagulation factor II = assay: coagulation factor analysis in plasma; assay type: biochemical, human
coagulation factor VII = assay: coagulation factor analysis in plasma; assay type: biochemical, human
[7] = 10 mg. taurolin/5 ml. plasma (sample 2)
[8] = 20 mg. taurolin/5 ml. plasma (sample 3)
[9] = 30 mg. taurolin/5 ml. plasma (sample 4)
[10] = 40 mg. taurolin/5 ml. plasma (sample 5)
[11] = 50 mg. taurolin/5 ml. plasma (sample 6)
[12] = maximum possible dosaging in the blood

For `O=S1(=O)CCN(CN2CCS(=O)(=O)NC2)CN1` [taurolin, 4,4'-Methylene-bis-(tetrahydro-2H-1,2,4-thiadiazine-1,1-dioxide)], which “coagulation factor X” value (coagulation factor X; [7]) is on record?
The value was 75%.

And the “coagulation factor X” value (coagulation factor X; [8])?
Its value is 65%.

And the “coagulation factor X” value (coagulation factor X; [9])?
Its value is 56%.

What about the “coagulation factor X” value (coagulation factor X; [10]) of the same molecule?
The value was 53%.

What about the “coagulation factor X” value (coagulation factor X; [11]) of the same molecule?
Its value is 50%.

What about the “PTT” value [1, 7] of the same molecule?
The value was 38.0 s.

And the “PTT” value [1, 8]?
The value was 43.0 s.

What about the “PTT” value [1, 9] of the same molecule?
Its value is 48.8 s.

What about the “PTT” value [1, 10] of the same molecule?
Its value is 55.9 s.

And the “PTT” value [1, 11]?
The value was 61.8 s.

What about the “PTT value (highest reached)” value [1, 12] of the same molecule?
Its value is at most 60 s.

And the “direct action on the Factor XII of the coagulation system” value (coagulation factor XII)?
The value was “marked direct action”.

What about the activity at 2000 µg/mL (coagulation factor XII; human, 10 mg. taurolin/5 ml. plasma (sample 2)) of the same molecule?
Its activity at 2000 µg/mL is 177%.

What about the activity at 4000 µg/mL (coagulation factor XII; human, 20 mg. taurolin/5 ml. plasma (sample 3)) of the same molecule?
The activity at 4000 µg/mL was 77%.

What about the activity at 6000 µg/mL (coagulation factor XII; human, 30 mg. taurolin/5 ml. plasma (sample 4)) of the same molecule?
Its activity at 6000 µg/mL is 64%.

And the activity at 8000 µg/mL (coagulation factor XII; human, 40 mg. taurolin/5 ml. plasma (sample 5))?
The activity at 8000 µg/mL was 55%.

And the activity at 10000 µg/mL (coagulation factor XII; human, 50 mg. taurolin/5 ml. plasma (sample 6))?
The activity at 10000 µg/mL was 61%.

What about the solubility (solubility) of the same molecule?
The solubility was 10000 µg/mL (≈ 35.2 mM).

And the “function of antithrombin III” value (antithrombin III)?
Its value is “inhibits dependent upon concentration”.

And the solubility in water [2]?
Its solubility in water is “about 1%”.

And the “coagulation factor XI” value (coagulation factor XI; [7])?
The value was 301%.

What about the “coagulation factor XI” value (coagulation factor XI; [8]) of the same molecule?
Its value is 197%.

What about the “coagulation factor XI” value (coagulation factor XI; [9]) of the same molecule?
The value was 140%.

What about the “coagulation factor XI” value (coagulation factor XI; [10]) of the same molecule?
The value was 83%.

What about the “coagulation factor XI” value (coagulation factor XI; [11]) of the same molecule?
Its value is 47%.

What about the “suppression of blood coagulation” value (blood plasma [3]) of the same molecule?
The value was “not completely suppressed”.

What about the “blood coagulation or fibrin deposition on the wall” value (fresh blood; cellulose acetate foil contacted with taurolin/blood plasma mixture (taurolin 1% in plasma), rinsed, fresh blood 30 minutes at 37° C.) of the same molecule?
Its value is “no blood coagulation or fibrin deposition on the wall”.

And the “fibrin fibre deposition on the surface (electron raster photographs)” value (fresh blood; cellulose acetate foil treated with 15 aqueous solution of taurolin 30 minutes at 37° C., then fresh blood 30 minutes at 37° C.)?
Its value is “no fibrin fibre deposition on the surface could be ascertained”.

And the “Quick test (%)” value [4, 7]?
Its value is 65%.

What about the “Quick test (%)” value [4, 8] of the same molecule?
The value was 53%.

What about the “Quick test (%)” value [4, 9] of the same molecule?
The value was 44%.

And the “Quick test (%)” value [4, 10]?
The value was 39%.

What about the “Quick test (%)” value [4, 11] of the same molecule?
The value was 35%.

What about the “Quick value (lowest reached)” value [4, 12] of the same molecule?
Its value is at least 20%.

What about the “coagulation factor VIII” value (coagulation factor VIII; [7]) of the same molecule?
The value was 48%.

And the “coagulation factor VIII” value (coagulation factor VIII; [8])?
Its value is 21%.

And the “coagulation factor VIII” value (coagulation factor VIII; [9])?
The value was 13%.

And the “coagulation factor VIII” value (coagulation factor VIII; [10])?
The value was 6%.

And the “coagulation factor VIII” value (coagulation factor VIII; [11])?
Its value is 6%.

What about the “coagulation factor IX” value (coagulation factor IX; [7]) of the same molecule?
The value was 153%.

And the “coagulation factor IX” value (coagulation factor IX; [8])?
The value was 81%.

And the “coagulation factor IX” value (coagulation factor IX; [9])?
The value was 63%.

And the “coagulation factor IX” value (coagulation factor IX; [10])?
The value was 65%.

What about the “coagulation factor IX” value (coagulation factor IX; [11]) of the same molecule?
Its value is 68%.

What about the “influence on blood coagulation as stated in the literature” value (blood plasma [5]) of the same molecule?
The value was “does not influence the blood coagulation”.

What about the “deposition of blood coagula on the artificial surface in vivo” value [6] of the same molecule?
The value was “continuously effectively prevents the deposition of blood coagula; also recorded: effectively continuously prevents the deposition of blood coagula”.

What about the “coagulation factor V” value (coagulation factor V; [7]) of the same molecule?
The value was 121%.

What about the “coagulation factor V” value (coagulation factor V; [8]) of the same molecule?
Its value is 110%.

What about the “coagulation factor V” value (coagulation factor V; [9]) of the same molecule?
Its value is 92%.

What about the “coagulation factor V” value (coagulation factor V; [10]) of the same molecule?
Its value is 81%.

And the “coagulation factor V” value (coagulation factor V; [11])?
Its value is 79%.

What about the “coagulation factor II” value (coagulation factor II; [7]) of the same molecule?
Its value is 96%.

And the “coagulation factor II” value (coagulation factor II; [8])?
Its value is 87%.

And the “coagulation factor II” value (coagulation factor II; [9])?
Its value is 90%.

What about the “coagulation factor II” value (coagulation factor II; [10]) of the same molecule?
Its value is 75%.

And the “coagulation factor II” value (coagulation factor II; [11])?
The value was 74%.

What about the “coagulation factor VII” value (coagulation factor VII; [7]) of the same molecule?
Its value is 79%.

What about the “coagulation factor VII” value (coagulation factor VII; [8]) of the same molecule?
The value was 74%.

What about the “coagulation factor VII” value (coagulation factor VII; [9]) of the same molecule?
Its value is 74%.

What about the “coagulation factor VII” value (coagulation factor VII; [10]) of the same molecule?
The value was 77%.

What about the “coagulation factor VII” value (coagulation factor VII; [11]) of the same molecule?
The value was 73%.

Which “suppression of blood coagulation” value (blood plasma [3]) does the source give for heparin here?
Its value is “completely suppressed”.
